Reference: US10246426B2, “Triazole compounds as T-type calcium channel blockers” (IDORSIA PHARMACEUTICALS LTD, priority 2014, dated 2019)

Target: Cav3.2 (Homo sapiens, UniProt O95180)
Experiment: Calcium flux FLIPR assay, HEK293 cells recombinantly expressing Cav3.2
Format: cell-based
Details: Cav3.2-channel, Ca2+ entry stimulated by 10 mM CaCl2
Procedure: In Vitro Methods—Measurement of Calcium Channel Flux by Means of FLIPR Assays.
HEK293 cells recombinantly expressing either voltage-dependent T-type calcium channel subunit […] (Cav3.2) or voltage-dependent L-type calcium channel subunit alpha-1C (Cav1.2) are assayed for calcium flux using the calcium indicator dye Fluo-4-AM (Molecular Devices) and FLIPR technology (Fluorometric Imaging Plate Reader, Molecular Devices) (Xie X, Van Deusen A L, Vitko I, Babu D A, Davies L A, Huynh N, Cheng H, Yang N, Barrett P Q, Perez-Reyes E. Validation of high throughput screening assays against three subtypes of Ca(v)3 T-type channels using molecular and pharmacologic approaches. Assay and Drug Development Technologies 2007, 5(2), 191-203). The HEK293 cells recombinantly expressing Cav3.2 are maintained in DMEM growth medium (Life Technologies) supplemented with 10% Fetal Bovine Serum (FBS), 100 U/ml penicilin (Life Technologies), 100 μg/ml streptomycin (Life Technologies) and 1 mg/ml G418 (Life Technologies). HEK293 cells recombinantly expressing Cav1.2 are maintained in DMEM growth medium (Life technologies) supplemented with 10% FBS, 0.1 mg/ml G418 (Life Technologies), 0.1 mg/ml hygromycin (Life Technologies) and 40 ug/ml zeocin (Life Technologies).
Cells are washed once with PBS, then dissociated in 0.25% trypsin/EDTA (Life Technologies) and seeded into poly-D-lysine coated 384-well black, clear bottom plates (BD Biosciences) at a density of 30,000 cells/well. The seeded plates are incubated overnight at 37° C.
Immediately prior to performing the assay, medium is removed and cells are treated for 1 hour at 37° C. with loading buffer containing HBSS 1× (137 mM NaCl; 5.4 mM KCl; 0.25 mM Na2HPO4; 1.3 mM CaCl2; 0.4 mM MgSO04; 0.5 mM MgCl2; 0.4 mM KH2PO4, pH 7.4), 0.375 g/L NaHCO3, 20 mM Hepes, supplemented with 3 μM Fluo-4-AM and 0.15% Pluronic (Life Technologies). The cells are then washed three times with assay buffer (HBSS 1×; 0.375 g/L NaHCO3; 20 mM Hepes; 1% FBS; pH 7.4) and allowed to rest in 50 μl of wash buffer for 30 minutes.
Stock solutions of test compounds are prepared to a concentration of 10 mM in DMSO. For the Cav3.2 assay, serial dilutions of the compounds are prepared in TEAC buffer (100 mM tetraethylammonium chloride; 20 mM Hepes; 2.5 mM CaCl2; 5 mM KCl; 1 mM MgCl2; 1% FBS; pH 7.2), for the Cav1.2 assay serial dilutions are prepared in assay buffer. […] The compounds are incubated with the cells for 3 minutes and Ca2+ entry is stimulated by adding either CaCl2 to a final concentration of 10 mM (Cav3.2 assay) or by adding KCl to a final concentration of 20 mM (Cav1.2 assay). The kinetics of fluorescence increase are recorded for every well and the area under the fluorescence trace for every compound concentration is used to generate inhibition curves using non-linear regression sigmoidal concentration-response curve analysis with in-house software. IC50 values are calculated and represent the compound concentration required to inhibit 50% of the signal that is obtained in the presence of vehicle instead of test compound.

Sequence of Cav3.2 (O95180 whole entry, looked up): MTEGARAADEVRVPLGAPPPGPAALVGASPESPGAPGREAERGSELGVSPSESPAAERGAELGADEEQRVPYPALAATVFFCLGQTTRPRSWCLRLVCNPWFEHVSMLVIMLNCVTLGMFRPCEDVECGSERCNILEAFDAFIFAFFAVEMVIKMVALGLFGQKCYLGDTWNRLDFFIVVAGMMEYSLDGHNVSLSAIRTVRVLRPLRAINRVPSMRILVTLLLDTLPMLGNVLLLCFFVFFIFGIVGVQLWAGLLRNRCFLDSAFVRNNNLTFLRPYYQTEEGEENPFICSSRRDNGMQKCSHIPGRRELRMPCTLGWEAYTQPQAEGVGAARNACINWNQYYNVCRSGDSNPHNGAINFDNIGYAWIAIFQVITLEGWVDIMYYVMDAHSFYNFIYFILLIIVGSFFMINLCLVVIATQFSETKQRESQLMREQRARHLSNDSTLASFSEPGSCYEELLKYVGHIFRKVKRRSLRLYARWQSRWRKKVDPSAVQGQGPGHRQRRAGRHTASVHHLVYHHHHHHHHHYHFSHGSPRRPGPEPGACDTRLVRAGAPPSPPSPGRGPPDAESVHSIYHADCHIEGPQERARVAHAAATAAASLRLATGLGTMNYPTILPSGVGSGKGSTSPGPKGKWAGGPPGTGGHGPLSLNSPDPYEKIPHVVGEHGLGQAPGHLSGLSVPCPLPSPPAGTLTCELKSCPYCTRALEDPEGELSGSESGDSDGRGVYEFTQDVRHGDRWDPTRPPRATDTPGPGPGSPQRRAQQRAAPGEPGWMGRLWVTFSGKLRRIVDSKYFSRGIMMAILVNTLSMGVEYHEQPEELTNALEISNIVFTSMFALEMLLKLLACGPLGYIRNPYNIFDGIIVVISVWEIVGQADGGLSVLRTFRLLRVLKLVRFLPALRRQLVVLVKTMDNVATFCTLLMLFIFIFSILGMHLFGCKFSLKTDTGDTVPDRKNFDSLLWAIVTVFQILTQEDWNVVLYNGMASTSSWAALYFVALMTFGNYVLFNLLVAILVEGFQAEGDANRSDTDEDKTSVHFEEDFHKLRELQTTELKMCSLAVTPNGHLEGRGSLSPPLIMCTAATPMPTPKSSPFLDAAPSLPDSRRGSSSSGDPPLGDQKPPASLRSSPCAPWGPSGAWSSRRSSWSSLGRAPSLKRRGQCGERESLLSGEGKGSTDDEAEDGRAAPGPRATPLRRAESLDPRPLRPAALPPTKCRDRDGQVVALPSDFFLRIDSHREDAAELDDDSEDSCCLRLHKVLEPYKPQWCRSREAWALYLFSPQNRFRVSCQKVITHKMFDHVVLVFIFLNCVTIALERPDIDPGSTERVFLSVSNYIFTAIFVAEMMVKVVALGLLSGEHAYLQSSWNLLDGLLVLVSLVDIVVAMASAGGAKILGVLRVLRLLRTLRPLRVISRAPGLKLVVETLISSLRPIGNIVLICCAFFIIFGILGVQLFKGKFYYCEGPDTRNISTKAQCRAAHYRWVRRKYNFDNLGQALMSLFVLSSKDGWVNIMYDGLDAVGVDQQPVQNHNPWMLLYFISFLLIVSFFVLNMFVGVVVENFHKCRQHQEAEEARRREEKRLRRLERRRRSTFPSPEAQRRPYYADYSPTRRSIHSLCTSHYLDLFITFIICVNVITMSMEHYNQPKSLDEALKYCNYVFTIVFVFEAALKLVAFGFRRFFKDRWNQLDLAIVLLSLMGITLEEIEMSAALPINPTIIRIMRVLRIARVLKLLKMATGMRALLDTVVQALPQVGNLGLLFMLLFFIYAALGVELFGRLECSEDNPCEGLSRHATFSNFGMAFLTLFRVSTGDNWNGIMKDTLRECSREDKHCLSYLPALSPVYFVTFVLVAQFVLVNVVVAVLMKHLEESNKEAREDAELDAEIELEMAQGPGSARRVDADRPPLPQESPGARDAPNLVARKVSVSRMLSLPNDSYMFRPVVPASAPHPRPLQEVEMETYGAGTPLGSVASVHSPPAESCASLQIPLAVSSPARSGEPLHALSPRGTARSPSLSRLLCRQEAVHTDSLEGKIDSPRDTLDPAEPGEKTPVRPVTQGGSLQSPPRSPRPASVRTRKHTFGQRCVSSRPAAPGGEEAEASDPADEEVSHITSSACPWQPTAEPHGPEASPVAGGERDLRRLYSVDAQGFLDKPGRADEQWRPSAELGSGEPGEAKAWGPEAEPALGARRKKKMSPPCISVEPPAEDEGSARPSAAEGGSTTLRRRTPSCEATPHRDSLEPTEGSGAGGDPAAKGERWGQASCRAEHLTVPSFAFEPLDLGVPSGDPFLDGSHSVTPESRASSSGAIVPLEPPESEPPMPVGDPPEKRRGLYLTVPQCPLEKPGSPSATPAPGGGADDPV

SMILES | IC50 [nM]
Cc1ccc(Cn2ncc(NC(=O)Cc3ccc(N4CCCC4)nc3)n2)cc1 [Example 68, N-[2-(4-Methyl-benzyl)-2H-[1,2,3]triazol-4-yl]-2-(6-pyrrolidin-1-yl-pyridin-3-yl)-acetamide] | 45
Cc1ccc(Cn2ncc(NC(=O)Cc3ccc4c(cnn4C)c3)n2)cc1 [Example 69, N-[2-(4-Methyl-benzyl)-2H-[1,2,3]triazol-4-yl]-2-(1-methyl-1H-indazol-5-yl)-acetamide] | 20
Cn1ccc2cc(CC(=O)Nc3cnn(Cc4ccc(C#N)c(F)c4)n3)ccc21 [Example 70, N-[2-(4-Cyano-3-fluoro-benzyl)-2H-[1,2,3]triazol-4-yl]-2-(1-methyl-1H-indol-5-yl)-acetamide] | 18
CC1(c2ccc(CC(=O)Nc3cnn(Cc4ccc(C#N)c(F)c4)n3)cc2)COC1 [Example 72, N-[2-(4-Cyano-3-fluoro-benzyl)-2H-[1,2,3]triazol-4-yl]-2-[4-(3-methyl-oxetan-3-yl)-phenyl]-acetamide] | 74
CC(C)(C)c1ccc(CC(=O)Nc2cnn(Cc3ccc(C#N)c(F)c3)n2)cc1 [Example 73, 2-(4-tert-Butyl-phenyl)-N-[2-(4-cyano-3-fluoro-benzyl)-2H-[1,2,3]triazol-4-yl]-acetamide] | 37
CC(C)c1ccc(CC(=O)Nc2cnn(Cc3ccc(C#N)c(F)c3)n2)cc1 [Example 74, N-[2-(4-Cyano-3-fluoro-benzyl)-2H-[1,2,3]triazol-4-yl]-2-(4-isopropyl-phenyl)-acetamide] | 45
N#Cc1ccc(Cn2ncc(NC(=O)Cc3ccc(N4CCCC4)nc3)n2)cc1F [Example 75, N-[2-(4-Cyano-3-fluoro-benzyl)-2H-[1,2,3]triazol-4-yl]-2-(6-pyrrolidin-1-yl-pyridin-3-yl)-acetamide] | 87
Cn1ncc2cc(CC(=O)Nc3cnn(Cc4ccc(C#N)c(F)c4)n3)ccc21 [Example 76, N-[2-(4-Cyano-3-fluoro-benzyl)-2H-[1,2,3]triazol-4-yl]-2-(1-methyl-1H-indazol-5-yl)-acetamide] | 120
COc1c(F)cc(Cn2ncc(NC(=O)Cc3ccc4c(ccn4C)c3)n2)cc1F [Example 77, N-[2-(3,5-Difluoro-4-methoxy-benzyl)-2H-[1,2,3]triazol-4-yl]-2-(1-methyl-1H-indol-5-yl)-acetamide] | 13
COc1c(F)cc(Cn2ncc(NC(=O)Cc3ccc(C4(C)COC4)cc3)n2)cc1F [Example 78, N-[2-(3,5-Difluoro-4-methoxy-benzyl)-2H-[1,2,3]triazol-4-yl]-2-[4-(3-methyl-oxetan-3-yl)-phenyl]-acetamide] | 49
COc1c(F)cc(Cn2ncc(NC(=O)Cc3ccc(C(C)(C)C)cc3)n2)cc1F [Example 79, 2-(4-tert-Butyl-phenyl)-N-[2-(3,5-difluoro-4-methoxy-benzyl)-2H-[1,2,3]triazol-4-yl]-acetamide] | 46
COc1c(F)cc(Cn2ncc(NC(=O)Cc3ccc(C(C)C)cc3)n2)cc1F [Example 80, N-[2-(3,5-Difluoro-4-methoxy-benzyl)-2H-[1,2,3]triazol-4-yl]-2-(4-isopropyl-phenyl)-acetamide] | 29
COc1c(F)cc(Cn2ncc(NC(=O)Cc3ccc(N4CCCC4)nc3)n2)cc1F [Example 81, N-[2-(3,5-Difluoro-4-methoxy-benzyl)-2H-[1,2,3]triazol-4-yl]-2-(6-pyrrolidin-1-yl-pyridin-3-yl)-acetamide] | 28
COc1c(F)cc(Cn2ncc(NC(=O)Cc3ccc4c(cnn4C)c3)n2)cc1F [Example 82, N-[2-(3,5-Difluoro-4-methoxy-benzyl)-2H-[1,2,3]triazol-4-yl]-2-(1-methyl-1H-indazol-5-yl)-acetamide] | 23
COCCOc1ccc(Cn2ncc(NC(=O)Cc3ccc(C(C)(C)C)cc3)n2)cc1 [Example 86, 2-(4-tert-Butyl-phenyl)-N-{2-[4-(2-methoxy-ethoxy)-benzyl]-2H-[1,2,3]triazol-4-yl}-acetamide] | 130
COCCOc1ccc(Cn2ncc(NC(=O)Cc3ccc4c(ccn4C)c3)n2)cc1 [Example 87, N-{2-[4-(2-Methoxy-ethoxy)-benzyl]-2H-[1,2,3]triazol-4-yl}-2-(1-methyl-1H-indol-5-yl)-acetamide] | 460
CC(C)(C)c1ccc(CC(=O)Nc2cnn(Cc3ccc(OC(F)F)cc3)n2)cc1 [Example 88, 2-(4-tert-Butyl-phenyl)-N-[2-(4-difluoromethoxy-benzyl)-2H-[1,2,3]triazol-4-yl]-acetamide] | 56
Cn1ccc2cc(CC(=O)Nc3cnn(Cc4ccc(OC(F)F)cc4)n3)ccc21 [Example 89, N-[2-(4-Difluoromethoxy-benzyl)-2H-[1,2,3]triazol-4-yl]-2-(1-methyl-1H-indol-5-yl)-acetamide] | 20
CC(C)(C)c1ccc(CC(=O)Nc2cnn(Cc3ccc(OC(F)(F)F)cc3)n2)cc1 [Example 90, 2-(4-tert-Butyl-phenyl)-N-[2-(4-trifluoromethoxy-benzyl)-2H-[1,2,3]triazol4-yl]-acetamide] | 200
Cn1ccc2cc(CC(=O)Nc3cnn(Cc4ccc(OC(F)(F)F)cc4)n3)ccc21 [Example 91, 2-(1-Methyl-1H-indol-5-yl)-N-[2-(4-trifluoromethoxy-benzyl)-2H-[1,2,3]triazol-4-yl]-acetamide] | 7.4
Cn1ncc2cc(CC(=O)Nc3cnn(Cc4ccc(OC(F)(F)F)cc4)n3)ccc21 [Example 92, 2-(1-Methyl-1H-indazol-5-yl)-N-[2-(4-trifluoromethoxy-benzyl)-2H-[1,2,3]triazol-4-yl]-acetamide] | 9.9
CC1(c2ccc(CC(=O)Nc3cnn(Cc4ccc(OC(F)(F)F)cc4)n3)cc2)COC1 [Example 93, 2-[4-(3-Methyl-oxetan-3-yl)-phenyl]-N-[2-(4-trifluoromethoxy-benzyl)-2H-[1,2,3]triazol-4-yl]-acetamide] | 15
O=C(Cc1ccc(N2CCC(F)(F)C2)nc1)Nc1cnn(Cc2ccc(F)cc2)n1 [Example 94, 2-[6-(3,3-Difluoro-pyrrolidin-1-yl)-pyridin-3-yl]-N-[2-(4-fluoro-benzyl)-2H-[1,2,3]triazol-4-yl]-acetamide] | 10
CCN(CC)c1ccc(CC(=O)Nc2cnn(Cc3ccc(F)cc3)n2)cn1 [Example 95, 2-(6-Diethylamino-pyridin-3-yl)-N-[2-(4-fluoro-benzyl)-2H-[1,2,3]triazol-4-yl]-acetamide] | 46
CC(C)(C)c1ccc(CC(=O)Nc2cnn(Cc3ccc(C#N)cc3)n2)cc1 [Example 96, 2-(4-tert-Butyl-phenyl)-N-[2-(4-cyano-benzyl)-2H-[1,2,3]triazol-4-yl]-acetamide] | 44
N#Cc1ccc(Cn2ncc(NC(=O)Cc3ccc(N4CCC(F)(F)C4)nc3)n2)cc1 [Example 97, N-[2-(4-Cyano-benzyl)-2H-[1,2,3]triazol-4-yl]-2-[6-(3,3-difluoro-pyrrolidin-1-yl)-pyridin-3-yl]-acetamide] | 36
N#Cc1ccc(Cn2ncc(NC(=O)Cc3ccc(N4CCCC4)nc3)n2)cc1 [Example 98, N-[2-(4-Cyano-benzyl)-2H-[1,2,3]triazol-4-yl]-2-(6-pyrrolidin-1-yl-pyridin-3-yl)-acetamide] | 83
Cn1ccc2cc(CC(=O)Nc3cnn(Cc4ccc(C#N)cc4)n3)ccc21 [Example 99, N-[2-(4-Cyano-benzyl)-2H-[1,2,3]triazol-4-yl]-2-(1-methyl-1H-indol-5-yl)-acetamide] | 19
Cc1cn(C)c2ccc(CC(=O)Nc3cnn(Cc4ccc(C#N)cc4)n3)cc12 [Example 100, N-[2-(4-Cyano-benzyl)-2H-[1,2,3]triazol4-yl]-2-(1,3-dimethyl-1H-indol-5-yl)-acetamide] | 22
Cn1ncc2ccc(CC(=O)Nc3cnn(Cc4ccc(C#N)cc4)n3)cc21 [Example 101, N-[2-(4-Cyano-benzyl)-2H-[1,2,3]triazol-4-yl]-2-(1-methyl-1H-indazol-6-yl)-acetamide] | 480
